This is an account of results in article PMC12445440 (Journal of Medical Virology, 2025).

Bounds are passed on as bounds.

Data set [1] relates to ZIKV^Br. Nature of the data set: Virus yield assay, ZIKV^Br on VeroE6 cells. Format: cell-based. The following applies: Zika virus, Vero C1008, 95% CI in brackets.
The subject of data set [2] is ZIKV^Br. The data set can be described thus: Virus yield assay, ZIKV^Br on HMC3 cells. Format: cell-based. Particulars: Zika virus.
The nature of data set [3]: Cytotoxicity by WST-8, HMC3 cells. Particulars: human, 95% CI in brackets. Format: cell-based. How it is done:
(§1) Cytotoxic/cytostatic effects were evaluated in uninfected cells by WST‐8 (Orangu, Cell Guidance Systems): 1 × 10^4 cells/well in a 96‐well plate were incubated in the presence of threefold serial dilutions of compounds, from 0.30 to 218 μM, for 48 h. Medium was replaced with 50 μL of 10% WST‐8, in DMEM, 2% FBS. Following a 1‐h incubation at 37°C, optical density (OD) in wells was measured at 450 nm using Varioskan LUX (ThermoFisher Scientific). CC50 was calculated using the formula: %viability=100×(ODcompound/ODuntreated control) where ODcompound and ODuntreated are the OD of the cells treated with compound or DMSO, respectively.

Data set [4] is described as follows: Cytotoxicity by WST-8, A549 cells. Format: cell-based. Particulars: human, 95% CI in brackets. How it is done:
as §1
A general note: Tetrazolium assays rely on reduction of a dye to a coloured formazan, in cell work by metabolically active cells.

Data set [5] deals with ZIKV^Ug. Nature of the data set: microbe, parasite or virus in culture. Format: cell-based. The following applies: Zika virus; ZIKV^Ug (Huh-7); 95% CI in brackets.
For data set [6], the system named is CHIKV. Nature of the data set: Plaque reduction assay, CHIKV on Huh-7 cells. Format: cell-based. The following applies: Chikungunya virus, CHIKV (Huh-7), 95% CI in brackets. On the technique in general: Plaque reduction counts the foci of infection that form in a cell layer.
Data set [7] concerns VV-IND-G. Nature of the data set: microbe, parasite or virus in culture. The following applies: Orthopoxvirus vaccinia, Huh-7. Format: cell-based, Vaccinia virus recombinant for VSV-Indiana G protein.
The test system of data set [8] is ZIKV^Br. The data set can be described thus: Time-of-addition (TOA) experiments, ZIKV^Br in Huh-7 cells. The following applies: harvest 48 h p.i. Format: cell-based, Zika virus. How it is done:
PS1097 was added at 6 μM at 0, 2, 6, 12, 24, and 36 h p.i. SOF was used as a reference compound at 15 μM. At 48 h p.i., viral proteins were determined by western blot or by qRT‐PCR in cell lysates.
To elucidate the mechanism of PS1097 antiviral action, TOA experiments were conducted (Figure 4A). ZIKV^Br replication kinetics was assessed by quantifying viral genomic RNA and protein inside Huh‐7 cells at the times p.i. shown in Figure 4A. Viral RNA was detectable as of ~12 h p.i. (Figure 4D), whereas viral protein was visible after 24 h p.i. (Figure 4B,C). In parallel, cells were exposed to viral inoculum for 2 h. […] Then, they were harvested at 48 h p.i. Viral RNA in cells was measured by qRT‐PCR and inhibition relative to DMSO‐treated cells was calculated, as described by (Figure 4G).
(§2) Figure 4 (A) Experimental design of the Time Of Addition (TOA) assay for PS1097 and SOF. (B) ZIKV replication kinetics was determined on Huh‐7 cells infected at MOI 1for 2 h by western blot cell lysates prepared at the times shown. ZIKV NS5 and GAPDH were monitored with the antibodies in Supporting Information: Table S1. (C) Quantitative analysis of the results in B). (D) qRT‐PCR quantification of ZIKV RNA was carried out in ZIKV‐infected cells lysed at the times indicated on the x axis. (E) western blot of lysates of Huh‐7 cells harvested at 48 h p.i. where treatment with PS1097 or SOF was started as by A). (F) Quantitative analysis of the results in E). (G) ZIKV RNA was quantified in lysates of cells harvested at 48 h p.i. where treatment with PS1097 (red line) or SOF (green line) was started at the times p.i. indicated on the x axis. (H) Combined antiviral activity of PS1097 with SOF against ZIKV. Huh‐7 cells were infected with ZIKV then treated with PS1097 or SOF, alone or in combination, at the indicated concentrations. After 48 h p.i., supernatants were harvested and titrated for ZIKV yield. Two‐dimensional representation of dose–response interaction matrix was determined in synergyfinder.org. Color gradient indicates viral yield inhibition score (red‐highest score). […]

Data set [9] has as its system ZIKV^Br. The data set can be described thus: Synergism between PS1097 and SOF, ZIKV^Br yield. Format: cell-based, Zika virus. How it is done:
as §2, with “score). (I) Three‐dimensional surface plot representing synergy score (Z axis) for each compound combination.” for “score).”

Data set [10] has as its system Vero76. More on the design: method as in earlier work. Particulars: previously published data; ref [18]-[22] of main text, [3] of supplement for PS1086, PS1100, PS1101; cited from earlier work.
In data set [11] the test system is RTN4. Nature of the data set: Western blot of ER proteins in Huh-7 cells: RTN4. The following applies: 6 μM PS1097, 48 h. In general terms: Immunoblotting shows a protein as a band on a membrane.

As usually defined, the EC50 is the midpoint of the concentration-response curve. The low end stands for higher potency in that assay, the high end for lower potency in that assay. For `O=c1[nH]c2cc3cccnc3c(Cl)c2nc1-c1cccs1` [PS1097, 5‐chloro‐3‐(thiophen‐2‐yl) pyrido[2,3‐g] quinoxalin‐2(1H)‐one], the EC50 in [1] was 1.34 µM; in data set [2], above 100 µM; in data set [5] it was 1.29 µM; in data set [6], 4.4 µM; in data set [7], 1.73 µM. Also, the CC50 at 48 h is 294 µM in data set [3]; 218 µM in data set [4] (A549 cells (CVB5 and HSV2 rows of Table 2)); 130 µM in [4] (A549 cells (ZIKV^Br row of Table 2)). The “Time of addition up to which viral protein expression is suppressed” value in data set [8] (Huh-7, ZIKV^Br MOI 1, 10x EC50 (6 μM)) is on record as “up to 12 h p.i”. Also, the “Time of addition giving the strongest inhibition” value in [8] (Huh-7, ZIKV^Br MOI 1, 10x EC50 (PS1097 6 μM, SOF 15 μM)) is 0–6 h p.i. Moreover, in data set [9] (combined treatment PS1097 2.0–0.125 μM with SOF 5.0–0.39 μM, 48 h p.i., SynergyFinder), the “Interaction of PS1097 with SOF (synergy)” value is “No synergistic effects”. For the same compound, the “Interaction of PS1097 with SOF at the highest concentrations” value in data set [9] (combined treatment, highest concentrations (PS1097 up to 2 μM, SOF up to 5 μM)) is “slight antagonistic effect”. For the same compound, the CC50 in data set [10] is above 100 µM. Besides, in data set [11], the “RTN4 protein content (western blot)” value is listed as “virtually unchanged”.
